The test system of one data set is metastasis of cancer. Particulars: experiments using animals; cited from earlier work.
In data set [1] the test system is lipoproteins precipitated by heparin (corresponding to the fractions of LDL and VLDL). Kind of data set: Effect against hyperlipidemia (Demonstration 2): lipoproteins precipitated by heparin (HPL, LDL and VLDL fractions) in blood serum. The class given is in vivo, mice. Particulars: for Decrease of HPL / HPL/Cholesterol ratio: mice, oral; for HPL/Cholesterol ratio: criterion not more than 0.92. The protocol:
Six mice were bred with high cholesterol-cholic acid feeds for 7 days so as to induce hyperlipidemia; one half of the total dose of each compound (I) as set forth in Table 1 was orally administered at the sixth day and the other half was orally administered at the seventh day. After starving the mice for one night, the cholesterol content of the blood serum of the respective mice was determined. It was judged that the tested compound had the desired activity (of reducing fat content of blood) when the cholesterol content of the blood serum was decreased by 15% or more as compared to that of the mice of the control group. Similar experiments were conducted as in Example 2, and it was judged that the tested compound had the desired activity (of reducing fat content in blood) when the content of lipoproteins precipitated by heparin (corresponding to the fractions of LDL and VLDL) in the blood serum of the tested group was decreased by 20% or more as compared to that of the mice of control group. Decrease of atheromic β-LDL or increase of HDL could be estimated when the ratio of lipoproteins precipitated by heparin to cholesterol (HPL/cholesterol) was not more than 0.92.

The nature of the next data set: Test on acute toxicity. Format: in vivo, mice. Particulars: for acute toxicity, changes observed: mice. How it is done:
The compound (I) was administered to mice in an amount of 300 mg/kg orally or abdominally.

Data set [2] has as its system cholesterol content of the blood serum. Kind of data set: Effect against hyperlipidemia (Demonstration 1): cholesterol content of blood serum. The class given is in vivo, mice. Conditions: for Reduction Rate of Cholesterol in Blood Serum: mice, oral. How it is done: Six mice were bred with high cholesterol-cholic acid feeds for 7 days so as to induce hyperlipidemia; one half of the total dose of each compound (I) as set forth in Table 1 was orally administered at the sixth day and the other half was orally administered at the seventh day. After starving the mice for one night, the cholesterol content of the blood serum of the respective mice was determined. It was judged that the tested compound had the desired activity (of reducing fat content of blood) when the cholesterol content of the blood serum was decreased by 15% or more as compared to that of the mice of the control group.

Another data set relates to blood platelets. Kind of data set: Anticoagulating function for inhibiting coagulation of blood platelets (aggregometer, PRP, arachidonic acid). Format: cell-based, rabbit (White Japanese native species). Particulars: for Response (inhibition of coagulation of blood platelets): in vitro, arachidonic acid 50 mcg/ml, rabbit PRP, 37° C., 2 minutes. The protocol: White Japanese native species male rabbits each having a body weight of from 2.5 to 4.0 kg were used. The state of health of the rabbits was checked by visual examination for such as diarrhea and scabies in the ears, and the number of blood platelets and the hematocrit value of the individual rabbits were determined using the blood taken from the auricular vein of the individual rabbits. Rabbits each having a number of blood platelets of from 30×10^4 to 50×10^4 […] and a hematocrit value of from 30 to 40% were selected and the thus selected rabbits were fed for a pre-breeding period of one week, and then the number of blood platelets and the hematocrit value of the thus bred rabbits were determined again.
Using an injection tube treated with silicone, blood was taken from the auricular artery so that the ratio of blood to a 3.8% sodium citrate solution was 9 to 1 by volume, and the content of the tube was subjected to centrifugal separation at 100 to 140 g for 10 minutes. The supernatant was separated as platelet rich plasma (PRP), and the lower phase was further subjected to centrifugal separation at 450 g or 300 g for 10 minutes to obtain a platelet poor plasma (PPP). After subjecting the PRP to centrifugal separation at 800 g for 10 minutes, precipitated blood platelets were rinsed one time with a 5 m MEDTA deprived of Ca^2+ and MG^2+ and Hepes-Tyrode buffer (pH 7.4), and then suspended in Hepes-Tyrode buffer (pH 7.4) to obtain rinsed blood platelets. In the coagulation experiment, the number of blood platelets in PRP was directly counted by the Brecher-Cronkite method to control the same within the range of from 50×10^4 to 70×10^4 /mm^3.
Using an aggregometer, PRP was added with each of specimen drugs, followed by incubation at 37° C. for a predetermined time period (2 minutes), and an aggregation provoker (arachidonic acid, 50 mcg/ml) was added and then subjected to measurement.
The control drug used was Aspirin.

Results on five molecules are retold here after US4788200A, “Method and composition for treating arteriosclerosis” (MECT Corporation, priority 1986, dated 1988).

For `Clc1ccccc1CN1CCc2sccc2C1` [ticlopidine], in the data set on metastasis of cancer, the “effect of inhibiting metastasis of cancer” value is “have the effect of inhibiting metastasis of cancer”.

Regarding `COc1ccc(-c2nc3sc4ccccc4n3c(=O)c2-c2ccccc2)cc1` [Compound (I), 2-(p-methoxyphenyl)-3-phenylpyrimido[2,1-b]benzothiazole-4(4H)-one], the “pharmaceutical efficacy relative to control agent D-thiroxicine” value in data set [1] (from Table 2, fraction of D-thiroxicine efficacy) is given as “about 2/5”. Also, the “Decrease of HPL” value in data set [1] (10 mg/kg) was determined as 17%; in data set [1] (25 mg/kg), 23%. In addition, the HPL/Cholesterol ratio in data set [1] (25 mg/kg) is recorded as 0.92. For the same molecule, the “acute toxicity, changes observed” value in “Test on acute toxicity” (abdominal, 200 mg/kg) is “No changes were observed”; in the data set “Test on acute toxicity” (oral, 300 mg/kg), “No changes were observed”. For the same molecule, the “toxicity on successive administration, changes observed” value in “Test on acute toxicity” (mouse, in vivo, 100 mg/kg) was “no substantial change was observed”. The “pharmaceutical efficacy relative to control agent D-thyroxine” value in data set [2] (from Table 1, fraction of D-thyroxine efficacy) is “about 2/5”. In addition, the “Reduction Rate of Cholesterol in Blood Serum” value in data set [2] (10 mg/kg) amounted to 11%; in data set [2] (25 mg/kg), 16%. Moreover, the “efficacy relative to control drug Aspirin” value in the data set on blood platelets (from Table 3) worked out at 2.5 times. Further, the “Response (inhibition of coagulation of blood platelets)” value in the data set with blood platelets (1 γ (μg/ml)) worked out at 100.

`CC(=O)Oc1ccccc1C(=O)O` [Aspirin, reference compound]: in the data set with metastasis of cancer, the “effect of inhibiting metastasis of cancer” value is “have the effect of inhibiting metastasis of cancer”. Also, the “Response (inhibition of coagulation of blood platelets)” value with blood platelets (2.5 γ (μg/ml)) worked out at 100.

`N[C@H](Cc1cc(I)c(Oc2cc(I)c(O)c(I)c2)c(I)c1)C(=O)O` [D-thyroxine, reference compound]: in data set [1] (10 mg/kg), the “Decrease of HPL” value was 35% and the HPL/Cholesterol ratio came out at 0.93. Further, the “Reduction Rate of Cholesterol in Blood Serum” value in data set [2] (10 mg/kg) is 30%.

With `OCCN(CCO)c1nc(N2CCCCC2)c2nc(N(CCO)CCO)nc(N3CCCCC3)c2n1` [dipyridamol], the “effect of inhibiting metastasis of cancer” value in the data set on metastasis of cancer is “have the effect of inhibiting metastasis of cancer”.
